We go through 34 molecules from US10703764B2, “Benzopiperazine compositions as BET bromodomain inhibitors” (FORMA Therapeutics, Inc., priority 2013, dated 2020).

In one experiment the target is T1, BRD4 BD2 (Homo sapiens, UniProt O60885).
T1 construct: made in house
Nature of the experiment: AlphaScreen binding assay, BRD4 Bromodomain 2. The procedure, abridged: (§1)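 Compound dilution series were mixed with His-tagged BRD4 bromodomain and biotinylated tetra-acetylated H4 (1-21) peptide at pH 7.3 (BD1 and peptide at 50 nM, BD2 and peptide at 100 nM). Donor and acceptor beads were then added, and plates were equilibrated at least 1 h before reading. IC50 values were fitted with a four-parameter logistic model.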

In a further experiment the test system is MV4-11 cells. The experiment in a line: Oncology cell growth assay (3-day proliferation, CellTiter-Glo). As to conditions: Homo sapiens, MV4-11, 72 h, AML cell line MV4-11, 72 hours, compounds grouped by IC50 range, read-out: MV4-11 IC50 (inhibition of proliferation, gIC50). It counts as cell-based. In short, it runs like this: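 Luminescence from CellTiter-Glo served as the growth read-out after MV4-11 cells (3000/well) were cultured with compound for 72 hours. Final concentrations spanned 10 to 0.0045 μM in 3-fold steps. gIC50 values were derived by four-parameter logistic fitting relative to DMSO and cell-free controls.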

The target in a further experiment is T2, BRD4 BD1 (Homo sapiens, UniProt O60885).
T2 construct: made in house
The experiment in a line: AlphaScreen binding assay, BRD4 Bromodomain 1. In short, it runs like this: as §1

Consider `CC(=O)N1c2ccc(-c3cn(C)nn3)cc2N(C(=O)c2ccco2)C[C@@H]1C` [Example I-420], for which the IC50 at BRD4 BD2 is 50 to 500 nM; in the experiment on MV4-11 cells it was above 500 nM; at BRD4 BD1 it was 1000 to 10000 nM.
The matching figures for `CC(=O)N1c2ccc(-c3cnn(CCC(N)=O)c3)cc2N(C(=O)OC(C)C)C[C@@H]1C` [Example I-606]: below 50 nM, 100 to 500 nM and 100 to 1000 nM.
In the same order, the values of `COc1ccc(OC(=O)N2C[C@H](C)N(C(C)=O)c3ccc(-c4cnn(C5CC5)c4)cc32)cc1` [Example I-263] are below 50 nM, 100 to 500 nM and 100 to 1000 nM.
On to `CC(=O)N1c2ccc(-c3cnn(C4CS(=O)(=O)C4)c3)cc2N(C(=O)OC2CCCCC2)C[C@@H]1C` [Example I-1308], for which the figures for the IC50 at BRD4 BD2, in the experiment on MV4-11 cells and at BRD4 BD1 were below 50 nM, 100 to 500 nM and 100 to 1000 nM, respectively.
With `CC(=O)N1c2ccc(-c3cnn(CCN(C)C)c3)cc2N(C(=O)C2CC2)C[C@@H]1C` [Example I-146, (S)-1-(4-(cyclopropanecarbonyl)-6-(1-(2-(dimethylamino)ethyl)-1H-pyrazol-4-yl)-2-methyl-3,4-dihydroquinoxalin-1 (2H)-yl)ethanone], the IC50 is 50 to 500 nM on BRD4 BD2, above 500 nM in the experiment with MV4-11 cells and 1000 to 10000 nM on BRD4 BD1.
For `CC(=O)N1c2ccc(-c3cnn(C4CC4)c3)cc2N(C(=O)Oc2ccc3ncsc3c2)C[C@@H]1C` [Example I-527], the IC50 at BRD4 BD2 was 50 to 500 nM; in the experiment with MV4-11 cells, below 100 nM; at BRD4 BD1 it was 100 to 1000 nM.
Turning to `CC(=O)N1c2ccc(-c3cc[nH]n3)cc2N(C(=O)c2ccco2)C[C@@H]1C` [Example I-14, (S)-1-(4-(furan-2-carbonyl)-2-methyl-6-(1H-pyrazol-3-yl)-3,4-dihydro-quinoxalin-1(2H)-yl)ethanone], the IC50 was below 50 nM on BRD4 BD2, 100 to 500 nM in the experiment on MV4-11 cells and 1000 to 10000 nM at BRD4 BD1.
The matching figures for `CC(=O)N1c2ccc(-c3cnn(CC(C)(C)F)c3)cc2N(C(=O)OC(C)C)C[C@@H]1C` [Example I-140, (S)-isopropyl 4-acetyl-7-(1-(2-fluoro-2-methylpropyl)-1H-pyrazol-4-yl)-3-methyl-3,4-dihydroquinoxaline-1(2H)-carboxylate]: 50 to 500 nM, 100 to 500 nM and 100 to 1000 nM.
In the same order, the values of `CC(C)OC(=O)N1C[C@H](C)N(C(=O)C2CC2)c2ccc(-c3cnn(CC4(CO)COC4)c3)cc21` [Example I-615] are 50 to 500 nM, 100 to 500 nM and 100 to 1000 nM.
In the case of `CC(=O)N1c2ccc(-c3cnn(CCn4cncn4)c3)cc2N(C(=O)OC(C)C)C[C@@H]1C` [Example I-139, (S)-isopropyl 7-(1-(2-(1H-1,2,4-triazol-1-yl)ethyl)-1H-pyrazol-4-yl)-4-acetyl-3-methyl-3,4-dihydroquinoxaline-1 (2H)-carboxylate], the IC50 was below 50 nM on BRD4 BD2, 100 to 500 nM in the experiment on MV4-11 cells and 100 to 1000 nM on BRD4 BD1.
For the molecule `CC(=O)N1c2ccc(-c3ccc(S(C)(=O)=O)cc3)cc2N(C(=O)OC2CCOCC2)C[C@@H]1C` [Example I-496], the values for the IC50 on BRD4 BD2, in the experiment on MV4-11 cells and at BRD4 BD1 were 50 to 500 nM, 100 to 500 nM and 100 to 1000 nM, respectively.
In the case of `COc1ccc(OC(=O)N2C[C@H](C)N(C(C)=O)c3ccc(-c4ccc(S(C)(=O)=O)cc4)cc32)cc1` [Example I-233], the IC50 is below 50 nM on BRD4 BD2, below 100 nM in the experiment with MV4-11 cells and 100 to 1000 nM on BRD4 BD1.
The matching figures for `COC(=O)N1c2ccc(-c3cnn(CC4(C)COC4)c3)cc2N(C(=O)OC(C)C)C[C@@H]1C` [Example I-637]: 50 to 500 nM, 100 to 500 nM and 100 to 1000 nM.
The matching figures for `COc1ccc(-c2ccc3c(c2)N(C(=O)C2CCC2)C[C@H](C)N3C(C)=O)cc1N1CCCS1(=O)=O` [Example I-1168]: 50 to 500 nM, 100 to 500 nM and 100 to 1000 nM.
In the same order, the values of `CC(=O)Nc1cc2c(cc1-c1ccc(S(C)(=O)=O)cc1)N(C(=O)OC(C)C)C[C@H](C)N2C(C)=O` [Example I-197, Isopropyl (S)-6-acetamido-4-acetyl-3-methyl-7-(4-(methylsulfonyl)phenyl)-3,4-dihydroquinoxaline-1(2H)-carboxylate] are above 500 nM, above 500 nM and 1000 to 10000 nM.
Consider `CC(C)OC(=O)N1C[C@H](C)N(C(=O)C2CC2)c2ccc(-c3cnn(C[C@H]4CCNC4)c3)cc21` [Example I-690], for which the values for the IC50 on BRD4 BD2, in the experiment on MV4-11 cells and at BRD4 BD1 were 50 to 500 nM, above 500 nM and 100 to 1000 nM, respectively.
In the same order, the values of `CCCOC(=O)N1C[C@H](C)N(C(C)=O)c2ccc(-c3ccc(S(C)(=O)=O)cc3)cc21` [Example I-252] are 50 to 500 nM, 100 to 500 nM and 100 to 1000 nM.
On to `CC(=O)N1c2ccc(-c3cnn(Cc4c[nH]cn4)c3)cc2N(C(=O)C2CC2)C[C@@H]1C` [Example I-127, (S)-1-(6-(1-((1H-imidazol-4-yl)methyl)-1H-pyrazol-4-yl)-4-(cyclopropanecarbonyl)-2-methyl-3,4-dihydroquinoxalin-1(2H)-yl)ethanone], for which the results for the IC50 on BRD4 BD2, in the experiment with MV4-11 cells and on BRD4 BD1 were below 50 nM, above 500 nM and 100 to 1000 nM, respectively.
In the same order, the values of `CC(=O)N1c2ccc(-c3ccc(N4CCS(=O)(=O)CC4)cc3)cc2N(C(=O)OC(C)C)C[C@@H]1C` [Example I-467] are 50 to 500 nM, 100 to 500 nM and 100 to 1000 nM.
As for `CC(=O)N1c2ccc(-c3ccc(S(C)(=O)=O)cc3)cc2N(C(=O)Oc2cccc3ccccc23)C[C@@H]1C` [Example I-251], the results for the IC50 on BRD4 BD2, with MV4-11 cells and on BRD4 BD1 were 50 to 500 nM, above 500 nM and 1000 to 10000 nM, respectively.
Consider `CC(=O)N1c2ccc(-c3ccc(C(=O)N4CC[C@H](O)C4)cc3)cc2N(C(=O)OC(C)C)C[C@@H]1C` [Example I-580], for which the IC50 on BRD4 BD2 was 50 to 500 nM; in the experiment on MV4-11 cells it was 100 to 500 nM; at BRD4 BD1 it was 100 to 1000 nM.
With `CC(=O)N1c2ccc(-c3cnn(C4CC4)c3)cc2N(c2nn(C)c3ccc(F)cc23)C[C@@H]1C` [Example I-55, (S)-1-(6-(1-cyclopropyl-1H-pyrazol-4-yl)-4-(5-fluoro-1-methyl-1H-indazol-3-yl)-2-methyl-3,4-dihydroquinoxalin-1(2H)-yl)ethanone], the IC50 on BRD4 BD2 was below 50 nM; in the experiment with MV4-11 cells, 100 to 500 nM; on BRD4 BD1, 100 to 1000 nM.
In the same order, the values of `CC(=O)N1c2ccc(-c3cnn(C4COC4)c3)cc2N(C(=O)Oc2ccccn2)C[C@@H]1C` [Example I-91, (S)-pyridin-2-yl 4-acetyl-3-methyl-7-(1-(oxetan-3-yl)-1H-pyrazol-4-yl)-3,4-dihydroquinoxaline-1(2H)-carboxylate] are below 50 nM, 100 to 500 nM and below 100 nM.
Take `CC(=O)N1c2ccc(-c3ccc(S(=O)(=O)CC(C)C)cc3)cc2N(C(=O)OC2CCCCC2)C[C@@H]1C` [Example I-1239]: the IC50 on BRD4 BD2 fell in the range of 50 to 500 nM; with MV4-11 cells, 100 to 500 nM; on BRD4 BD1 it was 100 to 1000 nM.
The matching figures for `CCOC(=O)N1C[C@H](C)N(C(C)=O)c2ccc(-c3cccc(S(=O)(=O)CC)c3)cc21` [Example I-1092]: 50 to 500 nM, above 500 nM and 1000 to 10000 nM.
In the same order, the values of `COc1ccc(-c2ccc3c(c2)N(C(=O)OC(C)C)C[C@H](C)N3C(C)=O)cc1N1CCCS1(=O)=O` [Example I-1170] are 50 to 500 nM, 100 to 500 nM and 100 to 1000 nM.
Regarding `COC(=O)N1c2ccc(-c3cnn(C4CC4)c3)cc2N(C(=O)OCC2CC2)C[C@@H]1C` [Example I-996], the values for the IC50 at BRD4 BD2, with MV4-11 cells and on BRD4 BD1 were above 500 nM, above 500 nM and 100 to 1000 nM, respectively.
Consider `CC(=O)N1c2ccc(-c3ccc(S(=O)(=O)C4CC4)cc3)cc2N(C(=O)OC2CCCCC2)C[C@@H]1C` [Example I-1215], for which the IC50 on BRD4 BD2 is 50 to 500 nM; in the experiment on MV4-11 cells it was 100 to 500 nM; on BRD4 BD1, 100 to 1000 nM.
The matching figures for `CC(=O)N1c2ccc(-c3nnc(N)s3)cc2N(C(=O)c2ccco2)C[C@@H]1C` [Example I-430]: 50 to 500 nM, 100 to 500 nM and 1000 to 10000 nM.
On to `CC(=O)N1c2ccc(-c3ccc(S(=O)(=O)C4CC4)cc3)cc2N(C(=O)C2CC2)C[C@@H]1C` [Example I-1031], for which the results for the IC50 at BRD4 BD2, in the experiment on MV4-11 cells and at BRD4 BD1 were 50 to 500 nM, 100 to 500 nM and 1000 to 10000 nM, respectively.
Regarding `CC(=O)N1c2ccc(-c3ccc(F)c(S(C)(=O)=O)c3)cc2N(C(=O)C2CC2)C[C@@H]1C` [Example I-1098], the IC50 at BRD4 BD2 is 50 to 500 nM; with MV4-11 cells, above 500 nM; at BRD4 BD1, 1000 to 10000 nM.
The matching figures for `CC(=O)N1c2ccc(-c3cccc(NS(=O)(=O)N(C)C)c3)cc2N(C(=O)C2CCC2)C[C@@H]1C` [Example I-1144]: 50 to 500 nM, 100 to 500 nM and 1000 to 10000 nM.
In the same order, the values of `CC(=O)N1c2ccc(-c3cnn(C4CCOCC4)c3)cc2N(C(=O)OC2CCCCC2)C[C@@H]1C` [Example I-1301] are below 50 nM, below 100 nM and below 100 nM.
In the same order, the values of `CCOC(=O)N1C[C@H](C)N(C(C)=O)c2ccc(-c3ccc(S(=O)(=O)CC(C)C)cc3)cc21` [Example I-1080] are 50 to 500 nM, above 500 nM and 1000 to 10000 nM.
